Earlier results in publication PMC12308805, “Ultrahigh-Throughput Virtual Screening Strategies against PPI Targets: A Case Study of STAT Inhibitors” (Journal of Chemical Information and Modeling, 2025).

System: STAT3
Settings: sheet 6QHD_actives_decoys; retrospective screening set for STAT3 SH2 domain (PDB 6QHD); […]; ref DUD-E; cited from earlier work

Structure (SMILES) | Type
COc1ccc(NS(=O)(=O)c2ccc(OC)c(NS(=O)(=O)c3ccc(C#N)cc3)c2)cc1 [Decoy542] | Inactive (Decoy)
COc1ccc(S(=O)(=O)Nc2ccc(S(=O)(=O)Nc3nc(C)cc(C)n3)cc2)cc1F [Decoy560] | Inactive (Decoy)
COc1ccccc1[C@H](O)CNC(=O)c1cc(NS(=O)(=O)c2cccc([N+](=O)[O-])c2)ccc1O [Decoy566] | Inactive (Decoy)
O=c1c(C[C@@H](O)CN2CCOCC2)c(O)n(C[C@H](O)CN2CCOCC2)c(=O)n1C[C@H](O)CN1CCOCC1 [Decoy567] | Inactive (Decoy)
O=c1c(C[C@@H](O)CN2CCOCC2)c(O)n(C[C@@H](O)CN2CCOCC2)c(=O)n1C[C@H](O)CN1CCOCC1 [Decoy568] | Inactive (Decoy)
Cc1cc(NS(=O)(=O)c2ccc(NC(=O)CCCCC(=O)Nc3ccc(S(=O)(=O)Nc4cc(C)on4)cc3)cc2)no1 [Decoy592] | Inactive (Decoy)

Same assay, conditions: sheet 6QHD_actives_decoys; retrospective screening set for STAT3 SH2 domain (PDB 6QHD); decoys generated with DUD-E and presumed inactive, not tested; ref DUD-E; cited from earlier work

Structure (SMILES) | Type
COc1ccccc1NS(=O)(=O)c1ccc(O)c(C(=O)OCC(=O)c2ccc3c(c2)NC(=O)CO3)c1 [Decoy538] | Inactive (Decoy)
CC1(C)NC(=O)N(C[C@@H](O)COc2ccc(-c3ccc(OC[C@H](O)CN4C(=O)NC(C)(C)C4=O)cc3)cc2)C1=O [Decoy539] | Inactive (Decoy)
CCCNC(=O)CN1CCN(c2cc(C(=O)O)c3cc(NS(=O)(=O)c4cccs4)ccc3n2)CC1 [Decoy543] | Inactive (Decoy)
CC1=C(/C(O)=N/c2ccc(S(N)(=O)=O)cc2)[C@@H](c2ccco2)C(C#N)=C(SCC(=O)Nc2ccc(F)cc2)N1 [Decoy544] | Inactive (Decoy)
CC(=O)OC[C@@H]1O[C@H](n2c(=O)[nH]c(=O)c3n[nH]nc32)[C@@H](OC(C)=O)[C@H](OC(C)=O)[C@H]1OC(C)=O [Decoy545] | Inactive (Decoy)
O=C(O)CCCNC(=O)C(NC(=O)CCSSCCNC(=O)CCCC[C@@H]1SC[C@@H]2NC(=O)N[C@@H]21)C(=O)NCCCC(=O)O [Decoy546] | Inactive (Decoy)
CO[C@@H]1O[C@@H]2CO[C@@H](c3ccccc3)O[C@H]2[C@H](O[C@@H]2O[C@H](COC(C)=O)[C@H](OC(C)=O)[C@H](OC(C)=O)[C@H]2OC(C)=O)[C@H]1NC(C)=O [Decoy547] | Inactive (Decoy)
O=P(O)(O)CCN1CCCN(CCP(=O)(O)O)CCN(CCP(=O)(O)O)CCCN(CCP(=O)(O)O)CC1 [Decoy548] | Inactive (Decoy)
COc1ccc(CCC(=O)O)c([C@H](CC(=O)O)C(=O)O)c1OS(=O)(=O)c1ccc(C)cc1 [Decoy549] | Inactive (Decoy)
COc1ccc(-n2c(=O)[nH]c3cc([C@@H]4N[C@@H](c5ccc(OC)c(OC)c5)NO4)ccc3c2=O)cc1 [Decoy550] | Inactive (Decoy)
CCOc1cc(/C=N/N=C2\NC(=O)[C@@H](CC(=O)O)S2)cc(Br)c1OS(=O)(=O)c1ccc(C)cc1 [Decoy551] | Inactive (Decoy)
CCOC(=O)c1ccc(/N=C2\S[C@@H](CC(=O)Nc3ccc(C(=O)OCC)cc3)C(=O)N2CCc2ccc(Cl)cc2)cc1 [Decoy552] | Inactive (Decoy)
CCOC(=O)c1ccc(/N=C2\S[C@H](CC(=O)Nc3ccc(C(=O)OCC)cc3)C(=O)N2CCc2ccc(Cl)cc2)cc1 [Decoy553] | Inactive (Decoy)
C=CCn1c(SCC(=O)Nc2sc(C(=O)OCC)c(C)c2C(=O)OCC)nc2sc3c(c2c1=O)CCCC3 [Decoy554] | Inactive (Decoy)
O=S(=O)(O)c1cc(S(=O)(=O)O)c2c(/N=N/c3ccc([C@H](c4ccc(/N=N/c5ccc(O)cc5)cc4)C4CCCCC4)cc3)c(O)ccc2c1 [Decoy555] | Inactive (Decoy)
COc1cc(-c2c(-c3cc(Br)c(O)c(OC)c3)oc(/C=N/NC(=O)C[N+](C)(C)C)c2[N+](=O)[O-])cc(Br)c1[O-] [Decoy556] | Inactive (Decoy)
CCCCCCCCCCC/C=C/C(=O)N[C@H]1[C@@H](O[C@H]2O[C@@H](CO)[C@@H](O)[C@@H](O)[C@H]2NC(C)=O)O[C@@H](C[C@H](O)[C@H]2O[C@@H](n3ccc(=O)[nH]c3=O)[C@@H](O)[C@H]2O)[C@@H](O)[C@H]1O [Decoy557] | Inactive (Decoy)
CCCCCCCCCCC/C=C/C(=O)N[C@@H]1[C@@H](O[C@H]2O[C@@H](CO)[C@@H](O)[C@@H](O)[C@H]2NC(C)=O)O[C@@H](C[C@H](O)[C@H]2O[C@@H](n3ccc(=O)[nH]c3=O)[C@@H](O)[C@H]2O)[C@@H](O)[C@H]1O [Decoy558] | Inactive (Decoy)
COc1cc(/C=N/Nc2nnc(SCC(=O)NCCc3ccc(Cl)cc3)n2N)cc(OC)c1OC [Decoy559] | Inactive (Decoy)
CC(=O)N[C@@H](C=O)C[C@@H](O[C@@H]1O[C@H](COC(C)=O)[C@H](OC(C)=O)[C@H](OC(C)=O)[C@H]1OC(C)=O)[C@H](O)[C@H](O)CO [Decoy561] | Inactive (Decoy)
C=CCOC(=O)c1sc(NC(=O)[C@@H](C)n2c(N)nnc2SCc2ccccc2Cl)nc1C [Decoy562] | Inactive (Decoy)
Cc1ccc(Nc2cc(C)nc3cc(C(F)(F)F)ccc23)c(Br)c1 [Decoy563] | Inactive (Decoy)
CCCOc1ccc(C(=O)C2=C(O)C(=O)N(CCN3CCOCC3)[C@@H]2c2ccc(O)c(OC)c2)cc1C [Decoy564] | Inactive (Decoy)
CCCN(C(=O)c1cccc([N+](=O)[O-])c1)[C@H](C(=O)NCS(=O)(=O)c1ccc(C)cc1)c1ccc(O)cc1 [Decoy565] | Inactive (Decoy)

Structure (SMILES) | Type
CC(=O)O[C@@H]1[C@H](O)[C@H](CO)O[C@H](OCC2=CO[C@H](OC(=O)CC(C)C)[C@H]3[C@H]2C[C@H](OC(C)=O)[C@@]3(C)O)[C@@H]1OC(C)=O [Decoy569] | Inactive (Decoy)
CCC/C=C/[C@@H](C(=O)NCS(=O)(=O)c1ccc(C)cc1)N(CCC)C(=O)c1cc([N+](=O)[O-])ccc1O [Decoy570] | Inactive (Decoy)
COc1ccc(S(=O)(=O)NNC(=O)CCCCC(=O)NNS(=O)(=O)c2ccc(OC)cc2)cc1 [Decoy571] | Inactive (Decoy)
O=C(/C=C/c1ccc(O)c2c1[C@@H](C(=O)O[C@@H](Cc1ccc(O)c(O)c1)C(=O)O)[C@H](c1ccc(O)c(O)c1)O2)O[C@H](Cc1ccc(O)c(O)c1)C(=O)O [Decoy572] | Inactive (Decoy)
COCCCNC(=O)C(=O)N/N=C/c1cc(I)c(OCC(=O)Nc2cccc(C(F)(F)F)c2)c(OC)c1 [Decoy573] | Inactive (Decoy)
C=CCn1c(CNc2ccc(Cl)cc2)nnc1S[C@@H](C)C(=O)N/N=C/c1ccc([N+](=O)[O-])s1 [Decoy574] | Inactive (Decoy)
Cc1ccc(S(=O)(=O)NNc2ncnc(NNC(=O)c3ccccc3)c2[N+](=O)[O-])cc1 [Decoy575] | Inactive (Decoy)
CCCn1c(O)nnc1SCC1=C(C(=O)OCC)[C@H](c2ccc(Cl)cc2)NC(=O)N1 [Decoy576] | Inactive (Decoy)
Cc1ccc(S(=O)(=O)CNC(=O)[C@H](c2ccc([N+](=O)[O-])cc2)N(Cc2ccco2)C(=O)CO)cc1 [Decoy577] | Inactive (Decoy)
CCCCOc1ccc([C@@H]2C(C(=O)c3nc4c(C)cccn4c3C)=C(O)C(=O)N2CCN(C)C)cc1OCC [Decoy578] | Inactive (Decoy)
CC[C@@H]1OC(=O)[C@@H](C)[C@@H](O[C@@H]2C[C@@](C)(OC)[C@H](O)[C@H](C)O2)[C@@H](C)[C@@H](O[C@H]2O[C@@H](C)C[C@@H](N(C)C)[C@H]2O)[C@](C)(O)C[C@@H](C)/C(=N\OCOCCOC)[C@@H](C)[C@@H](O)[C@]1(C)O [Decoy579] | Inactive (Decoy)
CC[C@H]1OC(=O)[C@@H](C)[C@@H](O[C@@H]2C[C@@](C)(OC)[C@H](O)[C@H](C)O2)[C@@H](C)[C@@H](O[C@H]2O[C@@H](C)C[C@@H](N(C)C)[C@H]2O)[C@](C)(O)C[C@@H](C)/C(=N\OCOCCOC)[C@@H](C)[C@@H](O)[C@@]1(C)O [Decoy580] | Inactive (Decoy)
CC[C@H]1OC(=O)[C@H](C)[C@@H](O[C@@H]2C[C@@](C)(OC)[C@H](O)[C@H](C)O2)[C@H](C)[C@H](O[C@H]2O[C@@H](C)C[C@@H](N(C)C)[C@H]2O)[C@](C)(O)C[C@@H](C)/C(=N\OCOCCOC)[C@H](C)[C@@H](O)[C@]1(C)O [Decoy581] | Inactive (Decoy)
CC[C@H]1OC(=O)[C@H](C)[C@@H](O[C@@H]2C[C@](C)(OC)[C@H](O)[C@H](C)O2)[C@H](C)[C@H](O[C@H]2O[C@@H](C)C[C@@H](N(C)C)[C@H]2O)[C@](C)(O)C[C@@H](C)/C(=N\OCOCCOC)[C@H](C)[C@@H](O)[C@]1(C)O [Decoy582] | Inactive (Decoy)
CC[N+]1=c2cc3c(cc2CCC1)=Nc1cc2c(cc1O3)N(CCCC(=O)NCCCCCNC(=O)CCCC[C@@H]1SC[C@@H]3NC(=O)N[C@@H]31)C(C)(C)C=C2CS(=O)(=O)[O-] [Decoy583] | Inactive (Decoy)
COc1cc(/C=N/Nc2nc(SCC(=O)Nc3ccc(C)cc3C)n[nH]2)cc(OC)c1OC [Decoy584] | Inactive (Decoy)
CCOC(=O)Cn1nnnc1[C@@H](CC)N(Cc1ccc(F)cc1)Cc1cc2cc3c(cc2[nH]c1=O)OCCO3 [Decoy585] | Inactive (Decoy)
COc1ccc(CCNc2ccc3nnc(CCNS(=O)(=O)c4ccc(C)cc4)n3n2)cc1OC [Decoy586] | Inactive (Decoy)
CCOC(=O)CNC(=O)[C@@H](c1ccc(F)cc1)N(C(=O)c1snc(C(N)=O)c1N)c1ccccc1F [Decoy587] | Inactive (Decoy)
C[N+]1=C(/C=C/C=C2/N(CCCCC(=O)NCCOCCOCCNCCO[C@H]3O[C@@H](CO)[C@@H](O)[C@H](O)[C@@H]3O)c3ccccc3C2(C)C)C(C)(C)c2ccccc21 [Decoy588] | Inactive (Decoy)
C[N+]1=C(/C=C/C=C2/N(CCCCC(=O)NCCOCCOCCNCCO[C@H]3O[C@@H](CO)[C@@H](O)[C@H](O)[C@H]3O)c3ccccc3C2(C)C)C(C)(C)c2ccccc21 [Decoy589] | Inactive (Decoy)
CC(=O)OC[C@@H](OC(C)=O)[C@H](OC(C)=O)[C@H](OC(C)=O)[C@H](OC(C)=O)[C@@H]1N[C@H](C(=O)O)C(C)(C)S1 [Decoy590] | Inactive (Decoy)
O=C(CSc1n[nH]c(N/N=C/c2cc(Cl)ccc2O)n1)NNC(=O)c1ccc(Cl)cc1 [Decoy591] | Inactive (Decoy)
CCOC(=O)c1[nH]c(C)c(C(=O)C2=C(O)C(=O)N(CCCN(C)C)[C@@H]2c2cc(OC)c(OC)c(OC)c2)c1C [Decoy593] | Inactive (Decoy)
